Assay results: US20240366648A1, “NAD-AUGMENTATION THERAPY FOR PARKINSON'S DISEASE” (Vestlandets Innovasjonsselskap AS (VIS), priority 2021, published 2024)

Tested on: NAD metabolome in PBMCs
Assay: Metabolomic analysis (LC-MS) in PBMCs
Assay type: in vivo, human
Conditions: oral NR 1000 mg/day, 30 days
Procedure: Biological material was collected at both visits, following a minimum 6-hour fasting and within 6 hours after study drug intake for visit 2. Sampling included whole blood, serum, peripheral blood mononuclear cells (PBMCs), cerebrospinal fluid (CSF) and muscle biopsy. Lumbar puncture was performed according to standard clinical procedures to collect 10 ml CSF. Needle biopsy of the vastus lateralis muscle was performed using a Bard Magnum biopsy gun (BD©, United States) and 12G×10 cm biopsy needles. Muscle biopsies were immediately dissected to remove any non-muscle tissue (e.g., fat or fascia) and snap-frozen in liquid nitrogen.
Standard substances of all the targeted compounds were used to prepare stock standard solutions and these solutions were mixed and diluted to make serially diluted standard solutions in an internal standard solution containing 11 isotope-labeled compounds (NAD-13C5, NADH-d5, nicotinamide riboside-d4, nicotinic-d4 acid, nicotinic acid-d4 riboside, AMP-15N5, ATP-13C10, nicotinamide-d4, 1-methylnicotinamide-d3, adenosine-13C5 and GTP-13C10) in a concentration range of 0.0002 to 20 nmol/mL. […] For metabolomic analyses in PBMCs, several aliquots of one sample were thawed on ice, centrifuged (10 min, 350×g, 4° C.), resuspended in ice-cold PBS and counted on a countess II cell counter. […]
For UPLC-MRM/MS, 10 μL aliquots of each standard solution and each sample solutions were injected to run LCMRM/MS either on a Waters Acquity UPLC coupled to a Sciex QTRAP 6500 Plus mass spectrometer with (−) ion detection or ESI or on an Agilent 1290 UHPLC system coupled to an Agilent 6495B QQQ mass spectrometer with (+) ion detection. […] Concentrations of individual metabolites detected in each sample were calculated by constructing linear-regression curves of individual metabolites with the analyte-to-internal standard peak area ratios (As/Ai) of standard solutions in each set of LC-MS runs and then by interpolating the calibration curves with the as/Ai values measured from injections of sample solutions in an appropriate concentration range for each compound. […]

Which “Me-Nam level in PBMCs” value does the source give for `NC(=O)c1ccc[n+]([C@@H]2O[C@H](CO)[C@@H](O)[C@H]2O)c1` [NR, nicotinamide riboside] here?
The value was “increase”.

What about the “NAAD level in PBMCs” value of the same molecule?
Its value is “increase”.

What about the “acetyl-CoA, CoA, SAM and its metabolites, energy compounds such as ATP in PBMCs” value of the same molecule?
Its value is “no significant change”.
